Experimental data taken from patent EP4737449A1 (Changchun Genescience Pharmaceutical Co., Ltd., priority 2023, dated 2025).
Where two headings read alike, the source gives them in different places.

What was measured:
[1] = target: CYP 3A4 enzyme in human liver microsomes (Homo sapiens, UniProt P08684); assay: CYP3A4 inhibition experiment in human liver microsomes
Method: The inhibitory effects of the test compounds on CYP 3A4T (with testosterone as substrate) and 3A4M (with midazolam as substrate) in human liver microsomes were evaluated in vitro to assess the medication safety of the compounds.
This study used the human liver microsome system and the cytochrome P450 enzyme probe substrate recommended by FDA guidelines for in vitro drug interaction studies to investigate the inhibition of the CYP 3A4 enzyme in human liver microsomes by the test compounds.
Test group (TG): Human liver microsomes were incubated with different concentrations of test compounds, NADPH (final concentration 2.00 mM) and probe substrates of different sub-enzymes (Table 4) for 5 min.
Positive control group (PC): Human liver microsomes were incubated with inhibitors (Table 4), NADPH (final concentration 2.00 mM) and probe substrates of different sub-enzymes (Table 4) for 5 min. Table 4 Probe substrates of sub-enzymes, inhibitors and incubation systems
The system was pre-incubated at 37°C for 5 min, and then 15 µL of 8 mM NADPH solution preheated at 37°C for 5-10 min to start the reaction. After incubation of the 96-well plate at 37°C for 5 min, 180 µL of acetonitrile:methanol (ACN:MeOH=1:1) solution containing internal standard (IS) was added to terminate the reaction. […] 80 µL of the supernatant was taken, added to 120 µL of ultrapure water, shaken evenly, and then detected by LC-MS/MS.
199 µL of 0.2 mg/mL HLM and 1 µL of 1 mM positive control inhibitor (ketoconazole) working solutions were taken and mixed evenly. 30 µL of the drug-containing liver microsome solution was taken and added to a 96-well plate, then 10 µL of substrate working solution (20 µM midazolam) was added, in duplicate. The system was pre-incubated at 37°C for 5 min, and then 15 µL of 8 mM NADPH solution preheated at 37°C for 5-10 min to start the reaction. After incubation of the 96-well plate at 37°C for 5 min, 180 µL of ACN:MeOH(1:1) solution containing IS was added to terminate the reaction. […] 80 µL of the supernatant was taken, added to 120 µL of ultrapure water, shaken evenly, and then detected by LC-MS/MS.
4.2.5.1 The relative activity of CYP450 sub-enzymes at different concentrations was calculated by dividing the peak area ratio (analyte peak area/internal standard peak area) of metabolites in the presence of the test sample or positive control by the peak area ratio of metabolites in the solvent control sample in the absence of the test article or positive control, according to the following formula: [formula] [formula]
4.2.5.2 Half maximal inhibitory concentration (IC50) was obtained by fitting according to the following model formula using Prism software: Y = Bottom + (Top−Bottom)/(1+10^(∧)((LogIC50−X)×HillSlope)) [formula]
X is the test sample concentration converted to logarithm (Log µM), Y is the relative activity (% of NC), Bottom and Top represent the percentage of enzyme activity at the bottom platform and top platform of the curve, respectively, and HillSlope represents the slope; to optimize the fitting effect, the use of other (nonlinear) dose-response models for fitting is not considered as a deviation from the protocol.

[2] = target: T1, p53-Y220C mutant protein (Homo sapiens, UniProt P04637, Y220C); assay: In vitro DNA binding activity assay (TR-FRET); type: biochemical; conditions: concentration required to increase the binding activity of protein to DNA by 50%
T1 construct: The recombinant Y220C p53 DBD protein with his-tag
How it was run: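 His-tagged Y220C p53 DBD was equilibrated with compound 60 min at room temperature, then biotin-DNA, anti-6His-Eu and streptavidin-d2 were added and incubated overnight in the dark. TR-FRET 665/615 nm ratio, background-corrected, was expressed as % activity versus vehicle; SC150 is the concentration raising DNA binding by 50%.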

[3] = test system: NUGC-3 cells; assay: NUGC-3 cell proliferation assay (CTG, 7 days); type: cell-based, human
Method: The cells were cultured in strict accordance with ATCC requirements.
Cell culture medium: 1640 culture medium, 10% serum, 1% penicillin + streptomycin.
Culture conditions: 37°C, 95% air, 5% carbon dioxide.
Compounds (20 mM) were subjected to gradient dilution in DMSO: 10 gradients, 3-fold dilution, duplicate wells.
Positive and negative controls (100% dimethyl sulfoxide) were prepared.
The compounds that were gradient diluted with DMSO and positive and negative controls (1st and 2nd step), each 75 nL, were transferred to 384-well cell culture plates by Echo550.
The cells were washed twice with PBS, digested with trypsin, and centrifuged for cell counting.
The experiment can only be carried out when the cell viability is above 90%.
The cells were plated into 384-well cell culture plates, with 200 (NUGC-3) cells and 30 µL of culture medium per well.
The 384-well microplate was placed in a cell culture incubator for 7 days.
30 µL of CTG detection reagent was added to the 384-well microplate.
The 384-well microplate was incubated for 30 min at 37°C, 5% carbon dioxide in the dark.
The reading was performed by a multi-functional microplate reader Envision.
% Inhibition is calculated as follows: % Inhibition = 100−(Signalcmpd−SignalAve_BL)/(SignalAve_VC−SignalAve_BL)*100 [formula] • Signalcmpd: Average signal of the compound in the cell plate • Signalave_vc: Average signal of the negative control in the cell plate • Signalave_BL: Average signal of the blank wells in the cell plate
IC50 was calculated by fitting % inhibition and compound concentration logarithmically to a nonlinear regression (dose response - variable slope) using Graphpad 8.0. Table 2 IC50 of selected compounds in NUGC-3 cell proliferation assay

[4] = CYP 3A4M IC50, human liver microsomes, midazolam as substrate
[5] = CYP 3A4T IC50, human liver microsomes, testosterone as substrate
[6] = Homo sapiens, NUGC-3, 168 h, NUGC-3 cell proliferation, 7 days, CTG, read-out: IC50

Sequence of CYP 3A4 enzyme in human liver microsomes (P08684 whole entry): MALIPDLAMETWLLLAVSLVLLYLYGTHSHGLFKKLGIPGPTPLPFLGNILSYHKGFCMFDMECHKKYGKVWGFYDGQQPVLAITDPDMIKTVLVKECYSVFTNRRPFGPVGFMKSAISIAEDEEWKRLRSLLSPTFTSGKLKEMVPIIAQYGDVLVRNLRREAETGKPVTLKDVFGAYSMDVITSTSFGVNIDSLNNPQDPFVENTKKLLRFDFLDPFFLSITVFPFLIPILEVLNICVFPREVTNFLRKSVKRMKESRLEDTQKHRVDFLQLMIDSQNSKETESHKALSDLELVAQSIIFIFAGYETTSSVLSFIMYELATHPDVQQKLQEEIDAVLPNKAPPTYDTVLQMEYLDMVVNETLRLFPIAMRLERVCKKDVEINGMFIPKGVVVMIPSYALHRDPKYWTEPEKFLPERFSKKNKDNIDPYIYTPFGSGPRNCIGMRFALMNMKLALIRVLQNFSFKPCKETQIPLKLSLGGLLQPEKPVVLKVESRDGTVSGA

Compound | IC50 [1, 4] [µM] | IC50 [1, 5] [µM] | SC150 [2] [nM] | IC50 [3, 6] [µM] | IC50 ([3]; NUGC-3 cell proliferation, 7 days, CTG, read-out: IC50) [µM] | IC50 ([3]; Homo sapiens, NUGC-3, 168 h) [µM]
CC(n1ncc(C(=O)NCC#Cc2nn3c(N[C@@H]4CCN(C)C[C@@H]4F)cccc3c2CC(F)(F)F)c1N)C(F)(F)F (single isomer, unassigned) [Compound 355A] | > 30 | 14.1 | 7 | 0.167 | – | –
CC(n1ncc(C(=O)NCC#Cc2nn3c(N[C@@H]4CCN(C)C[C@@H]4F)cccc3c2CC(F)(F)F)c1N)C(F)(F)F (single isomer, unassigned) [Compound 355B] | 12.5 | 13.7 | 16 | – | 0.154 | –
CCn1cc(C(=O)NCC#Cc2nn3c(N[C@@H]4CCN(C)C[C@@H]4F)cccc3c2CC(F)(F)F)cn1 [Compound 004, 1-ethyl-N-[3-(7-{[(3S,4R)-3-fluoro-1-methylpiperidin-4-yl]amino}-3-(2,2,2-trifluoroethyl)pyrazolo[1,5-a]pyridin-2-yl)prop-2-yn-1-yl]-1H-pyrazole-4-carboxamide] | > 30 | > 30 | 6 | – | – | –
COC(C)(C)Cn1cc(C(=O)NCC#Cc2nn3c(N[C@@H]4CCN(C)C[C@@H]4F)cccc3c2CC(F)(F)F)cn1 [Compound 039, N-[3-(7-{[(3S,4R)-3-fluoro-1-methylpiperidin-4-yl]amino}-3-(2,2,2-trifluoroethyl)pyrazolo[1,5-a]pyridin-2-yl)prop-2-yn-1-yl]-1-(2-methoxy-2-methylpropyl)-1H-pyrazole-4-carboxamide] | 20.2 | 27.8 | 10 | – | – | –
CN1CC[C@@H](Nc2cccc3c(CC(F)(F)F)c(C#CCNC(=O)c4ccn(C(C)(C)C)c4)nn23)[C@@H](F)C1 [Compound 087, 1-(tert-butyl)-N-(3-(7-{[(3S,4R)-3-fluoro-1-methylpiperidin-4-yl]amino}-3-(2,2,2-trifluoroethyl)pyrazolo[1,5-a]pyridin-2-yl)prop-2-yn-1-yl)-1H-pyrrole-3-carboxamide] | > 30 | > 30 | 19 | 1.37 | – | –
CN1CC[C@@H](Nc2cccc3c(CC(F)(F)F)c(C#CCNC(=O)c4cnn5c4CC(C)(C)C5)nn23)[C@@H](F)C1 [Compound 146, N-[3-(7-{[(3S,4R)-3-fluoro-1-methylpiperidin-4-yl]amino}-3-(2,2,2-trifluoroethyl)pyrazolo[1,5-a]pyridin-2-yl)prop-2-yn-1-yl]-5,5-dimethyl-5,6-dihydro-4H-pyrrolo[1,2-b]-1Hpyrazole-3-carboxamide] | 9.7 | 10.5 | 13 | – | – | 0.955
CN1CC[C@@H](Nc2cccc3c(CC(F)(F)F)c(C#CCNC(=O)c4cnn(C5(C)CC5)c4N)nn23)[C@@H](F)C1 [Compound 263, 5-amino-N-[3-(7-{[(3S,4R)-3-fluoro-1-methylpiperidin-4-yl]amino}-3-(2,2,2-trifluoroethyl)pyrazolo[1,5-a]pyridin-2-yl)prop-2-yn-1-yl]-1-(1-methylcyclopropyl)-1H-pyrazole-4-carboxamide] | > 30 | 16.4 | 4 | 0.268 | – | –
CN1CC[C@@H](Nc2cccc3c(CC(F)(F)F)c(C#CCNC(=O)c4cnn5c4COCC5)nn23)[C@@H](F)C1 [Compound 274, N-[3-(7-{[(3S,4R)-3-fluoro-1-methylpiperidin-4-yl]amino}-3-(2,2,2-trifluoroethyl)pyrazolo[1,5-a]pyridin-2-yl)prop-2-yn-1-yl]-6,7-dihydro-4H-pyrazolo[5,1-c][1,4]oxazine-3-carboxamide] | > 30 | > 30 | 12 | 0.611 | – | –
CN1CC[C@@H](Nc2cccc3c(CC(F)(F)F)c(C#CCNC(=O)c4cc(Cl)n(C)c4)nn23)[C@@H](F)C1 [Compound 326, 5-chloro-N-(3-(7-{[(3S,4R)-3-fluoro-1-methylpiperidin-4-yl]amino}-3-(2,2,2-trifluoroethyl)pyrazolo[1,5-a]pyridin-2-yl)prop-2-yn-1-yl)-1-methyl-1H-pyrrole-3-carboxamide] | – | – | 28 | 1.18 | – | –
CN1CC[C@@H](Nc2cccc3c(CC(F)(F)F)c(C#CCNC(=O)c4ccc(N(C)C)nc4)nn23)[C@@H](F)C1 [Compound 328, 6-dimethylamino-N-[3-(7-{[(3S,4R)-3-fluoro-1-methylpiperidin-4-yl]amino}-3-(2,2,2-trifluoroethyl)pyrazolo[1,5-a]pyridin-2-yl)prop-2-yn-1-yl]pyridine-3-carboxamide] | – | – | 30 | 1.21 | – | –
CCc1ccc(C(=O)NCC#Cc2nn3c(N[C@@H]4CCN(C)C[C@@H]4F)cccc3c2CC(F)(F)F)cn1 [Compound 331, 6-ethyl-N-[3-(7-{[(3S,4R)-3-fluoro-1-methylpiperidin-4-yl]amino}-3-(2,2,2-trifluoroethyl)pyrazolo[1,5-a]pyridin-2-yl)prop-2-yn-1-yl]pyridine-3-carboxamide] | – | – | 36 | 1.72 | – | –
Cc1ccc(C(=O)NCC#Cc2nn3c(N[C@@H]4CCN(C)C[C@@H]4F)cccc3c2CC(F)(F)F)cn1 [Compound 332, N-[3-(7-{[(3S,4R)-3-fluoro-1-methylpiperidin-4-yl]amino}-3-(2,2,2-trifluoroethyl)pyrazolo[1,5-a]pyridin-2-yl)prop-2-yn-1-yl]-6-methylnicotinamide] | – | – | 29 | 1.71 | – | –
CCC(C)(C)n1ncc(C(=O)NCC#Cc2nn3c(N[C@@H]4CCN(C)C[C@@H]4F)cccc3c2CC(F)(F)F)c1N [Compound 351] | 18.1 | 22 | 7 | – | – | –
CC(C)(C)n1ncc(C(=O)NCC#Cc2nn3c(N[C@@H]4CCNC[C@@H]4F)cccc3c2CC(F)(F)F)c1N [Compound 353-4, 5-amino-1-tert-butyl-N-[3-(7-{[(3S,4R)-3-fluoropiperidin-4-yl]amino}-3-(2,2,2-trifluoroethyl)pyrazolo[1,5-a]pyridin-2-yl)prop-2-yn-1-yl]-1H-pyrazole-4-carboxamide] | – | – | 9 | 0.181 | – | –
CCN1CC[C@@H](Nc2cccc3c(CC(F)(F)F)c(C#CCNC(=O)c4cnn(C(C)C)c4N)nn23)[C@@H](F)C1 [Compound 365, 5-amino-N-(3-(7-{[(3S,4R)-1-ethyl-3-fluoropiperidin-4-yl]amino}-3-(2,2,2-trifluoroethyl)pyrazolo[1,5-a]pyridin-2-yl)prop-2-yn-1-yl)-1-isopropyl-1H-pyrazole-4-carboxamide] | – | – | 5 | 0.127 | – | –
